Where a SMILES comes first, the peptide text is derived from it.
What was measured:
Assay in all cases: biochemical
Type in all cases: binding
HLA B*0801 = HLA B*0801 (Homo sapiens, UniProt P01889, A93T/A95T/D138N/E176V/E187T/K202T/Q94N/R180D/S35A/V36M/Y33D/Y91F)
HLA A*3201 = HLA A*3201 (Homo sapiens, UniProt P04439, A270S/D101S/D185E/E176V/E277Q/F133L/G103R/G107R/G231S/H175R/I121M/I218V/I322F/K168Q/L105A/L300P/L318F/M331R/P208A/P217A/Q94H/R106L/R138Q/S129P/T104I/T323A/T345S/V100E/V321M/V358M)
HLA B*1503 = HLA B*1503 (Homo sapiens, UniProt P01889, A329T/A93T/A95T/C349S/D201E/D98Y/E187L/E204Q/K202T/N87E/Q94N/R155S/R180L/S121R/S35A/V306I/V36M/Y140S/Y91S)
HLA B*1501 = HLA B*1501 (Homo sapiens, UniProt P01889, A329T/A93T/A95T/C349S/D201E/D98Y/E187L/E204Q/E69M/E70A/K202T/N87E/Q94N/R155S/R180W/S121R/S35A/S48A/V306I/V36M/Y140S/Y91S)
HLA A*3001 = HLA A*3001 (Homo sapiens, UniProt P04439, D140H/D185E/E176W/F33S/G80R/H175R/K168Q/R138E/R41S)
HLA A*3001, sequence (P04439 25-365 limits assumed, stated change not applied): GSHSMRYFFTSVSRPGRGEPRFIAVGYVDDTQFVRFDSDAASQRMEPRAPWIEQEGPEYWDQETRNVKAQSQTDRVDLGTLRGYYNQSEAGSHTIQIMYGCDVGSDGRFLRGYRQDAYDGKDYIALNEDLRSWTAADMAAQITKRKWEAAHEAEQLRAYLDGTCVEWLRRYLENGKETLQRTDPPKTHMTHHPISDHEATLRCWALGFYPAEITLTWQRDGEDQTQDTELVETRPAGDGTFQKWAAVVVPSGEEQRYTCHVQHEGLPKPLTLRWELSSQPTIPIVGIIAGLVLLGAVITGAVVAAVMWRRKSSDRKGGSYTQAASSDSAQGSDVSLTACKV

SMILES	IC50 (HLA B*0801)	IC50 (HLA A*3201)	IC50 (HLA B*1503)	IC50 (HLA B*1501)	IC50 (HLA A*3001)
CSCC[C@H](NC(=O)[C@H](CC(C)C)NC(=O)[C@@H](N)CCSC)C(=O)N[C@@H](CC(N)=O)C(=O)N[C@@H](Cc1c[nH]cn1)C(=O)N[C@H](C(=O)N[C@@H](C)C(=O)N[C@@H](CC(N)=O)C(=O)N[C@@H](Cc1ccccc1)C(=O)O)C(C)C [3102.0720] (H-MLMNHVANF-OH)	3.3 nM	8.3 nM	–	–	–
CC(C)C[C@H](NC(=O)[C@@H](N)CC(C)C)C(=O)N[C@@H](Cc1ccccc1)C(=O)N[C@@H](Cc1ccc(O)cc1)C(=O)N[C@H](C(=O)N[C@@H](CCCNC(=N)N)C(=O)N[C@@H](Cc1c[nH]cn1)C(=O)N[C@@H](CCCNC(=N)N)C(=O)N[C@@H](Cc1ccccc1)C(=O)O)[C@@H](C)O [3102.1058] (H-LLFYTRHRF-OH)	46 nM	2.6 nM	0.21 nM	0.85 nM	–
CC[C@H](C)[C@H](NC(=O)[C@@H](NC(=O)[C@H](CC(N)=O)NC(=O)[C@H](CCSC)NC(=O)[C@@H](N)CO)[C@@H](C)O)C(=O)N[C@@H](CCCCN)C(=O)N[C@@H](CCC(N)=O)C(=O)N[C@@H](CO)C(=O)N[C@@H](Cc1ccccc1)C(=O)O [3102.1144] (H-SMNTIKQSF-OH)	450 nM	293 nM	17 nM	–	–
CSCC[C@H](NC(=O)[C@@H](N)CO)C(=O)N[C@@H](CCCCN)C(=O)N[C@H](C(=O)N[C@H](C(=O)N[C@@H](Cc1ccccc1)C(=O)N[C@@H](CCC(N)=O)C(=O)N[C@H](C(=O)N[C@@H](Cc1ccccc1)C(=O)O)C(C)C)C(C)C)[C@@H](C)O [3102.1083] (H-SMKTVFQVF-OH)	179 nM	–	3.8 nM	1.6 nM	–
CC(C)C[C@H](NC(=O)[C@@H]1CCCN1C(=O)[C@H](CO)NC(=O)[C@H](Cc1ccccc1)NC(=O)[C@H](Cc1ccc(O)cc1)NC(=O)[C@H](CCCCN)NC(=O)[C@H](C)NC(=O)[C@@H](NC(=O)[C@H](C)N)C(C)C)C(=O)O [3102.0978] (H-AVAKYFSPL-OH)	190 nM	283 nM	–	16 nM	–
CC[C@H](C)[C@H](NC(=O)[C@@H](N)Cc1ccccc1)C(=O)N[C@@H](CCCNC(=N)N)C(=O)N[C@@H](Cc1ccc(O)cc1)C(=O)N[C@@H](CCCNC(=N)N)C(=O)N[C@@H](CCSC)C(=O)N[C@@H](Cc1c[nH]cn1)C(=O)N1CCC[C@H]1C(=O)N[C@@H](CCSC)C(=O)O [3102.0768] (H-FIRYRMHPM-OH)	0.21 nM	–	22 nM	1.2 nM	–
CC(C)C[C@H](NC(=O)[C@H](CC(C)C)NC(=O)[C@@H](N)CCCCN)C(=O)N[C@@H](CO)C(=O)N[C@@H](Cc1c[nH]cn1)C(=O)N[C@@H](Cc1ccccc1)C(=O)N[C@@H](Cc1ccc(O)cc1)C(=O)N1CCC[C@H]1C(=O)N[C@@H](C)C(=O)O [3102.0665] (H-KLLSHFYPA-OH)	81 nM	129 nM	5.4 nM	39 nM	–
CC[C@H](C)[C@H](NC(=O)[C@H](Cc1ccccc1)NC(=O)[C@H](CCCNC(=N)N)NC(=O)[C@H](CCC(=O)O)NC(=O)[C@@H](NC(=O)[C@H](CCSC)NC(=O)[C@@H](N)Cc1ccc(O)cc1)[C@@H](C)CC)C(=O)N[C@@H](CO)C(=O)N[C@@H](Cc1ccccc1)C(=O)O [3102.1085] (H-YMIERFISF-OH)	0.35 nM	–	0.046 nM	0.11 nM	–
CC[C@H](C)[C@H](NC(=O)[C@H](Cc1c[nH]cn1)NC(=O)[C@H](CS)NC(=O)[C@H](CC(C)C)NC(=O)[C@H](CC(C)C)NC(=O)[C@@H](N)CC(N)=O)C(=O)N[C@@H](Cc1ccc(O)cc1)C(=O)N[C@@H](CO)C(=O)N[C@@H](CC(C)C)C(=O)O [3102.0692] (H-NLLCHIYSL-OH)	0.31 nM	232 nM	–	–	–
CC[C@H](C)[C@H](NC(=O)[C@H](CCCNC(=N)N)NC(=O)[C@H](Cc1c[nH]cn1)NC(=O)[C@H](CS)NC(=O)[C@@H](NC(=O)[C@@H](N)CCSC)C(C)C)C(=O)N[C@@H](CC(C)C)C(=O)N[C@H](C(=O)N[C@@H](Cc1ccc(O)cc1)C(=O)O)[C@@H](C)O [3102.0849] (H-MVCHRILTY-OH)	220 nM	–	28 nM	70 nM	–
CC(C)C[C@H](NC(=O)[C@H](CCC(=O)O)NC(=O)[C@H](CC(N)=O)NC(=O)[C@H](CCCNC(=N)N)NC(=O)[C@H](CC(=O)O)NC(=O)[C@H](CCCCN)NC(=O)[C@H](CC(C)C)NC(=O)[C@@H](N)CC(C)C)C(=O)N[C@@H](Cc1ccccc1)C(=O)O [3102.0842] (H-LLKDRNELF-OH)	41 nM	–	16 nM	1.8 nM	–
CC(C)[C@H](NC(=O)[C@H](Cc1ccccc1)NC(=O)[C@H](CC(=O)O)NC(=O)[C@H](CC(N)=O)NC(=O)[C@H](CCCCN)NC(=O)[C@@H]1CCCN1C(=O)[C@@H](N)Cc1ccccc1)C(=O)N[C@@H](CO)C(=O)N[C@@H](Cc1ccccc1)C(=O)O [3102.0637] (H-FPKNDFVSF-OH)	16 nM	–	4.2 nM	10 nM	–
CC[C@H](C)[C@H](NC(=O)[C@@H](N)CCCNC(=N)N)C(=O)N[C@@H](CCCNC(=N)N)C(=O)N[C@@H](CCCNC(=N)N)C(=O)N[C@@H](Cc1ccccc1)C(=O)N[C@@H](CCCNC(=N)N)C(=O)N[C@@H](CCCNC(=N)N)C(=O)N1CCC[C@H]1C(=O)N[C@@H](CCSC)C(=O)O [3102.0681] (H-RIRRFRRPM-OH)	8.9 nM	–	30 nM	36 nM	4.4 nM
CSCC[C@H](NC(=O)[C@@H](NC(=O)[C@H](CO)NC(=O)CNC(=O)[C@H](CC(=O)O)NC(=O)[C@@H](NC(=O)[C@@H](NC(=O)[C@H](CCSC)NC(=O)[C@@H](N)Cc1ccc(O)cc1)C(C)C)C(C)C)C(C)C)C(=O)O [3102.1153] (H-YMVVDGSVM-OH)	390 nM	–	1 nM	2.5 nM	–
CC[C@H](C)[C@H](NC(=O)[C@@H](NC(=O)[C@H](CO)NC(=O)[C@H](CO)NC(=O)[C@H](CO)NC(=O)[C@H](CCCCN)NC(=O)[C@H](C)NC(=O)[C@@H](NC(=O)[C@@H](N)CC(C)C)[C@@H](C)CC)C(C)C)C(=O)O [3102.1021] (H-LIAKSSSVI-OH)	13 nM	–	–	23 nM	11 nM
CC[C@H](C)[C@H](NC(=O)[C@H](CO)NC(=O)[C@H](C)NC(=O)[C@@H](NC(=O)[C@@H](NC(=O)[C@H](CC(N)=O)NC(=O)[C@H](CCCNC(=N)N)NC(=O)[C@@H](NC(=O)[C@@H](N)CCCNC(=N)N)C(C)C)[C@@H](C)CC)[C@@H](C)CC)C(=O)O [3102.0367] (H-RVRNIIASI-OH)	22 nM	1 nM	–	–	0.1 nM
CC[C@H](C)[C@H](NC(=O)[C@H](CCCNC(=N)N)NC(=O)[C@H](Cc1ccc(O)cc1)NC(=O)[C@H](CCSC)NC(=O)[C@H](CO)NC(=O)[C@@H](N)CCCNC(=N)N)C(=O)N1CCC[C@H]1C(=O)N1CCC[C@H]1C(=O)N[C@@H](Cc1ccccc1)C(=O)O [3102.0766] (H-RSMYRIPPF-OH)	158 nM	0.73 nM	–	–	–
CC[C@H](C)[C@H](NC(=O)[C@H](CC(C)C)NC(=O)[C@@H](N)CC(N)=O)C(=O)N[C@H](C(=O)N[C@@H](CC(C)C)C(=O)N[C@@H](C)C(=O)N[C@H](C(=O)N[C@@H](CO)C(=O)N[C@@H](Cc1ccccc1)C(=O)O)C(C)C)[C@@H](C)O [3102.0798] (H-NLITLAVSF-OH)	328 nM	–	15 nM	81 nM	–
CSCC[C@H](NC(=O)[C@@H](NC(=O)[C@@H](N)CCCCN)[C@@H](C)O)C(=O)N[C@@H](C)C(=O)N[C@H](C(=O)N[C@H](C(=O)N[C@@H](Cc1ccc(O)cc1)C(=O)N[C@@H](CCC(=O)O)C(=O)N[C@@H](CC(C)C)C(=O)O)[C@@H](C)O)C(C)C [3102.0293] (H-KTMAVTYEL-OH)	19 nM	0.58 nM	–	5.5 nM	–
CC[C@H](C)[C@H](NC(=O)[C@@H](NC(=O)[C@H](Cc1c[nH]cn1)NC(=O)[C@H](CCCNC(=N)N)NC(=O)[C@H](CC(C)C)NC(=O)[C@@H](NC(=O)[C@H](Cc1ccccc1)NC(=O)[C@H](CCSC)NC(=O)[C@@H](N)CO)[C@@H](C)O)[C@@H](C)CC)C(=O)O [3102.0752] (H-SMFTLRHII-OH)	1.8 nM	83 nM	–	–	–
CC(C)C[C@H](NC(=O)[C@H](CCCCN)NC(=O)[C@H](CCCCN)NC(=O)[C@H](Cc1ccc(O)cc1)NC(=O)[C@H](CC(C)C)NC(=O)[C@@H](NC(=O)[C@@H](N)Cc1ccc(O)cc1)[C@@H](C)O)C(=O)N[C@@H](CO)C(=O)N[C@@H](Cc1ccccc1)C(=O)O [3102.0333] (H-YTLYKKLSF-OH)	16 nM	194 nM	–	14 nM	23 nM
